Source: US10112929B2, “Lactams as inhibitors of rock” (BRISTOL-MYERS SQUIBB COMPANY, priority 2015, dated 2018)
Read-outs that look alike come from different tables or passages of the source.

Tests used:
[1] = test system: porcine model of IL-1 beta-induced coronary stenosis; details: long term treatment; cited from earlier work
[2] = test system: rat stroke model; details: in vivo; cited from earlier work
[3] = test system: spontaneously hypertensive rat, renal hypertensive rat and deoxycortisone acetate salt hypertensive rat models; details: cited from earlier work
[4] = test system: neointimal formation in rats; details: cited from earlier work
[5] = test system: Dahl salt-sensitive rats; details: rat, in vivo; cited from earlier work
[6] = target: ROCK2 (Homo sapiens (Human), UniProt O75116);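 further: rho kinase enzyme reaction halted with EDTA, phospho- and non-phospho peptide separated for read-out, kinase activity inhibition derived across a dose-response series, DMSO under 2%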
Sequence of ROCK2 (O75116 whole entry, species assumed): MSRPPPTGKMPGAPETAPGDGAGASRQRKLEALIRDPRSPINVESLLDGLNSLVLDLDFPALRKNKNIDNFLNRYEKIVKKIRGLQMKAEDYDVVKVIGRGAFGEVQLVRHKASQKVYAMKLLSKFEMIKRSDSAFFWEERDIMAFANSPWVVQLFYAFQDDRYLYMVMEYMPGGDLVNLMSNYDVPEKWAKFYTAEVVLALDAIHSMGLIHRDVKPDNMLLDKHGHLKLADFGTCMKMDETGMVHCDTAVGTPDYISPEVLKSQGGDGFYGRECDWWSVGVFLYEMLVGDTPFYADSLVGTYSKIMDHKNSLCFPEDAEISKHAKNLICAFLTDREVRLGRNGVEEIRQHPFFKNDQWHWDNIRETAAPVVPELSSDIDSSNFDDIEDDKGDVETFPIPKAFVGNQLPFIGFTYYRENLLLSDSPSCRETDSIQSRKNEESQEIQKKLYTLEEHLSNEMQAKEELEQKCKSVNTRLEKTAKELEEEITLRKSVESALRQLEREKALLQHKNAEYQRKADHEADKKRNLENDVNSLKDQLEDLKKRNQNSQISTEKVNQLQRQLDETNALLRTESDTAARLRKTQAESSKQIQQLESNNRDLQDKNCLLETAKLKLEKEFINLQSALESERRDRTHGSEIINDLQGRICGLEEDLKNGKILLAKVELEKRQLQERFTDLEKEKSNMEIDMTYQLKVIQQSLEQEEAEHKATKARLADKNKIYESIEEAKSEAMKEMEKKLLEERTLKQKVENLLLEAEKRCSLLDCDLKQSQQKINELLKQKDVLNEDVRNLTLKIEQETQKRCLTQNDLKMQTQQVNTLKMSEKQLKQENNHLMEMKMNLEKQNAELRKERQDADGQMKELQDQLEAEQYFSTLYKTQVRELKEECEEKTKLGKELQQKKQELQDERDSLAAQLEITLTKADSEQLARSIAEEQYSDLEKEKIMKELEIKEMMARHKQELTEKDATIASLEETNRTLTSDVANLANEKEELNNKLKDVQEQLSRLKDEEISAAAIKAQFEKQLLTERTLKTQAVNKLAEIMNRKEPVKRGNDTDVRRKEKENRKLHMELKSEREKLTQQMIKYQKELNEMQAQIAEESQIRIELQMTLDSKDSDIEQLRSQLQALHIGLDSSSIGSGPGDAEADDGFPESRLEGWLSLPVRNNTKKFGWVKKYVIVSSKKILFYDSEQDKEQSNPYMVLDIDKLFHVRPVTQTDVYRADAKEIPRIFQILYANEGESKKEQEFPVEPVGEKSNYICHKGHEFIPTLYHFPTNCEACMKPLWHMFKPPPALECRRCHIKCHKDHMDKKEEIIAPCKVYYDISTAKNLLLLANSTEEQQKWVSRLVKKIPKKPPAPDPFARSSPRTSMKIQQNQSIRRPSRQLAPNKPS

Compound | IC50 [6] | also measured
O=S(=O)(c1cccc2cnccc12)N1CCCNCC1 [fasudil] |  | coronary constrictive remodeling [1]: promote a regression of coronary constrictive remodeling; coronary stenosis [1]: progressively reduce coronary stenosis; infarct size and neurologic deficit [2]: reduce both the infarct size and neurologic deficit
C[C@@H](N)[C@H]1CC[C@H](C(=O)Nc2ccncc2)CC1 [Example Y-27632] |  | blood pressure ([3]; control rats): only a minor effect on blood pressure; blood pressure ([3]; three rat models of hypertension): significantly decrease blood pressure; neointimal formation [4]: inhibited neointimal formation; ventricular hypertrophy, fibrosis and function [5]: improve ventricular hypertrophy, fibrosis and function
COc1cc(NC2CCN(c3ccc(-c4cn[nH]c4)c(OC)c3)C2=O)cc(OC)c1 (single isomer, unassigned) [Example 140, 3-((3,5-dimethoxyphenyl)amino)-1-(3-methoxy-4-(1H-pyrazol-4-yl)phenyl) pyrrolidin-2-one] | 100 to 2200 nM | 
CCc1cc(N2CCC(Nc3ccc(F)c(OC)c3)C2=O)ccc1-c1cn[nH]c1 (single isomer, unassigned) [Example 242, 1-(3-ethyl-4-(1H-pyrazol-4-yl)phenyl)-3-((4-fluoro-3-methoxyphenyl)amino) pyrrolidin-2-one] | 10 to 100 nM | 
COc1cc(NC2CCN(c3ccc(-c4cn[nH]c4)c(OCCN(C)C)c3)C2=O)ccc1F (racemic) [Example 347, 1-(3-(2-(dimethylamino)ethoxy)-4-(1H-pyrazol-4-yl)phenyl)-3-((4-fluoro-3-methoxyphenyl)amino)pyrrolidin-2-one] | 100 to 2200 nM | 
COc1cccc(NC2CCN(c3ccc(-c4cn[nH]c4)nc3)C2=O)c1 (single isomer, unassigned) [Example 298, 1-(6-(1H-pyrazol-4-yl)pyridin-3-yl)-3-((3-methoxyphenyl)amino)pyrrolidin-2-one] | 10 to 100 nM | 
COc1cccc(NC2CCN(c3ccc(-c4cn[nH]c4)cc3)C2=O)c1C (single isomer, unassigned) [Example 326, 1-(4-(1H-pyrazol-4-yl)phenyl)-3-((3-methoxy-2-methylphenyl)amino) pyrrolidin-2-one] | 10 to 100 nM | 
COc1cccc(NC2CCN(c3ccc(-c4cn[nH]c4)cc3Cl)C2=O)c1 (single isomer, unassigned) [Example 167, 1-(2-chloro-4-(1H-pyrazo1-4-yl)phenyl)-3 ((3-methoxyphenyl)amino)pyrrolidin-2-one] | 100 to 2200 nM | 
COc1ccc(NC2CCN(c3ccc(-c4cn[nH]c4)cc3)C2=O)cc1F (single isomer, unassigned) [Example 14, 1-(4-(1H-pyrazol-4-yl)phenyl)-3-((3-fluoro-4-methoxyphenyl)amino)pyrrolidin-2-one] | 100 to 2200 nM | 
COc1cc(F)cc(NC2CCN(c3ccc(-c4cn[nH]c4)c(Cl)c3)C2=O)c1 (single isomer, unassigned) [Example 159, 1-(3-chloro-4-(1H-pyrazol-4-yl)phenyl)-3 ((3-fluoro-5-methoxyphenyl)amino) pyrrolidin-2-one] | 100 to 2200 nM | 
COc1cc(F)cc(NC2CCN(c3ccc(-c4cn[nH]c4)c(OC)c3)C2=O)c1 (single isomer, unassigned) [Example 138, 3-((3-fluoro-5-methoxyphenyl)amino)-1-(3-methoxy-4-(1H-pyrazol-4-yl)phenyl) pyrrolidin-2-one] | < 10 nM | 
COc1cccc(NC2CCN(c3ccc(-c4cn[nH]c4)c(OC)n3)C2=O)c1 (single isomer, unassigned) [Example 197, 1-(6-methoxy-5-(1H-pyrazol-4-yl)pyridin-2-yl)-3-((3-methoxyphenyl)amino) pyrrolidin-2-one] | < 10 nM | 
COc1cccc(NC2CCN(c3ccc(-c4cn[nH]c4)c(C(F)(F)F)c3)C2=O)c1 (single isomer, unassigned) [Example 368, 1-(4-(1H-pyrazol-4-yl)-3-(trifluoromethyl)phenyl)-3-((3-methoxyphenyl)amino) pyrrolidin-2-one] | 100 to 2200 nM | 
COc1cccc(NC2CCN(c3ncc(-c4cn[nH]c4)cc3F)C2=O)c1 (single isomer, unassigned) [Example 358, 1-(3-fluoro-5-(1H-pyrazol-4-yl)pyridin-2-yl)-3-((3-methoxyphenyl)amino) pyrrolidin-2-one] | 100 to 2200 nM | 
COc1cc(NC2CCN(c3ccc(-c4cn[nH]c4)cc3)C2=O)cc(OC)c1 (single isomer, unassigned) [Example 22, 1-(4-(1H-pyrazol-4-yl)phenyl)-3-((3,5-dimethoxyphenyl)amino)pyrrolidin-2-one] | 100 to 2200 nM | 
CCc1nc(N2CCC(Nc3cccc(OC)c3)C2=O)ccc1-c1cn[nH]c1 (single isomer, unassigned) [Example 314, 1-(6-ethyl-5-(1H-pyrazol-4-yl)pyridin-2-yl)-3-((3-methoxyphenyl)amino) pyrrolidin-2-one] | < 10 nM | 
CCOc1cc(N2CCC(Nc3ccc(F)c(OC)c3)C2=O)ccc1-c1cn[nH]c1 (single isomer, unassigned) [Example 39, 1-(3-ethoxy-4-(1H-pyrazol-4-yl)phenyl)-3-((4-fluoro-3-methoxyphenyl)amino)pyrrolidin-2-one] | 10 to 100 nM | 
COc1cc(F)cc(NC2CCN(c3ccc(-c4cn[nH]c4)cn3)C2=O)c1 (single isomer, unassigned) [Example 87, 1-(5-(1H-pyrazol-4-yl)pyridin-2-yl)-3-((3-fluoro-5-methoxyphenyl)amino)pyrrolidin-2-one] | 10 to 100 nM | 
COCc1cc(N2CCC(Nc3ccc(F)c(OC)c3)C2=O)ccc1-c1cn[nH]c1 (single isomer, unassigned) [Example 182, 3-((4-fluoro-3-methoxyphenyl)amino)-1-(3-(methoxymethyl)-4-(1H-pyrazol-4-yl)phenyl)pyrrolidin-2-one] | 100 to 2200 nM | 
